Positions of bridges follow the written chain, without caps; N, C: chain ends. Non-standard residues stand in square brackets, D forms with d. Residues, ends and D or L forms follow the SMILES beside them. 2Nal = N[C@@H](Cc1ccc2ccccc2c1)C(=O)O; Tic = O=C(O)[C@@H]1Cc2ccccc2CN1; Cit = NC(=O)NCCC[C@H](N)C(=O)O; Ahp(2) = CCCCC[C@H](N)C(=O)O; NMeNle = CCCC[C@H](NC)C(=O)O; NHexGly = CCCCCCNCC(=O)O; Nle = CCCC[C@H](N)C(=O)O
Biological target: T1, mouse VISTA (mVISTA) (Mus musculus, UniProt Q9D659)
T1 construct: expressed in transfected cells; host or cells: Human embryonic kidney 293T cells
T1 sequence (Q9D659 33-308): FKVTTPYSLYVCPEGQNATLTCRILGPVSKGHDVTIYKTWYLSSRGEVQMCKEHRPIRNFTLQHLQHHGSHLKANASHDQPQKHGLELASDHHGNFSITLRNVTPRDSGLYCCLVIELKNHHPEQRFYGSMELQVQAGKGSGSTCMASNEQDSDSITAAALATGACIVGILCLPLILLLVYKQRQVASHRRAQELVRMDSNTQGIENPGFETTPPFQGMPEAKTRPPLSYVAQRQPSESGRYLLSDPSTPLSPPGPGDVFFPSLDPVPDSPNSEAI
Assay: Cell-Based Binding High-Content Assay For mVISTA (HC CBA mVISTA)
Settings: cell-based binding high-content assay, mVISTA; the 16th table; read-out: HC CBA mVISTA IC50
Method in brief: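 mVISTA-293T, 4,000 cells/well; cpd ± washout step; biotin-peptide 2 nM final, 30 min RT; SA-Alexa 647 30 min; formaldehyde/Hoechst fix; HCS imaging; 4PL IC50.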

Compound	IC50 [nM]
CCCCCCN1CC(=O)N[C@@H](Cc2ccc(O)cc2)C(=O)N[C@@H](CCCC)C(=O)N[C@@H](CC(N)=O)C(=O)N[C@@H](CCCNC(N)=O)C(=O)N(C)[C@@H](CCCC)C(=O)N[C@@H](CCCCC)C(=O)N2CCC[C@H]2C(=O)N[C@@H](C(C)C)C(=O)N[C@@H](CC(=O)O)C(=O)N[C@H](C(=O)NCC(=O)O)CSCC(=O)N[C@@H](Cc2ccc3ccccc3c2)C(=O)N[C@@H](Cc2ccc(O)cc2)C(=O)N[C@@H](CC(=O)O)C1=O [Ex 1301] ({CH2CO}-[2Nal]YD[NHexGly]Y[Nle]N[Cit][NMeNle][Ahp(2)]PVDCG-OH; thioether N-14)	5.6
CCCCCCN1CC(=O)N[C@@H](Cc2ccc(O)cc2)C(=O)N[C@@H](CCCCC)C(=O)NCC(=O)N[C@@H](CCCNC(N)=O)C(=O)N[C@@H](CC(C)C)C(=O)N[C@@H](CCCCC)C(=O)N2CCC[C@H]2C(=O)N[C@@H](C(C)C)C(=O)N[C@@H](CO)C(=O)N[C@H](C(=O)NCC(N)=O)CSCC(=O)N[C@@H](Cc2ccc3ccccc3c2)C(=O)N[C@@H](Cc2ccc(O)cc2)C(=O)N[C@@H](CC(=O)O)C1=O [Ex 1302] ({CH2CO}-[2Nal]YD[NHexGly]Y[Ahp(2)]G[Cit]L[Ahp(2)]PVSCG-NH2; thioether N-14)	7.5
CCCCCCN1CC(=O)N[C@@H](Cc2ccc(O)cc2)C(=O)N[C@@H](CCCC)C(=O)NCC(=O)N[C@@H](CCCNC(N)=O)C(=O)N[C@@H](CC(C)C)C(=O)N[C@@H](CCCCC)C(=O)N2CCC[C@H]2C(=O)N[C@@H](C(C)C)C(=O)N[C@@H](CC(=O)O)C(=O)N[C@H](C(=O)NCC(N)=O)CSCC(=O)N[C@@H](Cc2ccc3ccccc3c2)C(=O)N[C@@H](Cc2ccc(O)cc2)C(=O)N[C@@H](CC(=O)O)C1=O [Ex 1303] ({CH2CO}-[2Nal]YD[NHexGly]Y[Nle]G[Cit]L[Ahp(2)]PVDCG-NH2; thioether N-14)	8.8
CCCCCCN1CC(=O)N[C@@H](Cc2ccc(O)cc2)C(=O)N[C@@H](CCCC)C(=O)N[C@@H](CC(N)=O)C(=O)N[C@@H](CCCNC(=N)N)C(=O)N2Cc3ccccc3C[C@H]2C(=O)N[C@@H](CCCCC)C(=O)N2CCC[C@H]2C(=O)N[C@@H](C(C)C)C(=O)N[C@@H](CO)C(=O)N[C@H](C(=O)NCC(N)=O)CSCC(=O)N[C@@H](Cc2ccc3ccccc3c2)C(=O)N[C@@H](Cc2ccc(O)cc2)C(=O)N[C@@H](CC(=O)O)C1=O [Ex 1304] ({CH2CO}-[2Nal]YD[NHexGly]Y[Nle]NR[Tic][Ahp(2)]PVSCG-NH2; thioether N-14)	31.5
CCCCCCN1CC(=O)N[C@@H](Cc2ccc(O)cc2)C(=O)N[C@@H](CCCC)C(=O)N[C@@H](CC(N)=O)C(=O)N[C@@H](CCCNC(N)=O)C(=O)N2Cc3ccccc3C[C@H]2C(=O)N[C@@H](CCCCC)C(=O)N2CCC[C@H]2C(=O)N[C@@H](C(C)C)C(=O)N[C@@H](CC(=O)O)C(=O)N[C@H](C(=O)NCC(N)=O)CSCC(=O)N[C@@H](Cc2ccc3ccccc3c2)C(=O)N[C@@H](Cc2ccc(O)cc2)C(=O)N[C@@H](CC(=O)O)C1=O [Ex 1305] ({CH2CO}-[2Nal]YD[NHexGly]Y[Nle]N[Cit][Tic][Ahp(2)]PVDCG-NH2; thioether N-14)	10.3
CCCCCCN1CC(=O)N[C@@H](Cc2ccc(O)cc2)C(=O)N[C@@H](CCCC)C(=O)N[C@@H](CC(N)=O)C(=O)N[C@@H](CCCNC(N)=O)C(=O)N2Cc3ccccc3C[C@H]2C(=O)N[C@@H](CCCCC)C(=O)N2CCC[C@H]2C(=O)N[C@@H](C(C)C)C(=O)N[C@@H](CO)C(=O)N[C@H](C(=O)NCC(N)=O)CSCC(=O)N[C@@H](Cc2ccc3ccccc3c2)C(=O)N[C@@H](Cc2ccc(O)cc2)C(=O)N[C@@H](CC(=O)O)C1=O [Ex 1306] ({CH2CO}-[2Nal]YD[NHexGly]Y[Nle]N[Cit][Tic][Ahp(2)]PVSCG-NH2; thioether N-14)	25.2
CCCCCCN1CC(=O)N[C@@H](Cc2ccc(O)cc2)C(=O)N[C@@H](CCCC)C(=O)N[C@@H](CC(N)=O)C(=O)N[C@@H](CCCNC(=N)N)C(=O)N2Cc3ccccc3C[C@H]2C(=O)N[C@@H](CCCCC)C(=O)N2CCC[C@H]2C(=O)N[C@@H](C(C)C)C(=O)N[C@@H](CC(=O)O)C(=O)N[C@H](C(=O)NCC(N)=O)CSCC(=O)N[C@@H](Cc2ccc3ccccc3c2)C(=O)N[C@@H](Cc2ccc(O)cc2)C(=O)N[C@@H](CC(=O)O)C1=O [Ex 1307] ({CH2CO}-[2Nal]YD[NHexGly]Y[Nle]NR[Tic][Ahp(2)]PVDCG-NH2; thioether N-14)	11.4
CCCCCCN1CC(=O)N[C@@H](Cc2ccc(O)cc2)C(=O)N[C@@H](CCCC)C(=O)N[C@@H](CC(N)=O)C(=O)N[C@@H](CCCNC(=N)N)C(=O)N(C)[C@@H](CCCC)C(=O)N[C@@H](CCCCC)C(=O)N2CCC[C@H]2C(=O)N[C@@H](C(C)C)C(=O)N[C@@H](CC(=O)O)C(=O)N[C@H](C(=O)NCC(=O)O)CSCC(=O)N[C@@H](Cc2ccc3ccccc3c2)C(=O)N[C@@H](Cc2ccc(O)cc2)C(=O)N[C@@H](CC(=O)O)C1=O [Ex 1308] ({CH2CO}-[2Nal]YD[NHexGly]Y[Nle]NR[NMeNle][Ahp(2)]PVDCG-OH; thioether N-14)	9.5
CCCCCCN1CC(=O)N[C@@H](Cc2ccc(O)cc2)C(=O)N[C@@H](C(C)C)C(=O)NCC(=O)N[C@@H](CCCNC(=N)N)C(=O)N[C@@H](CC(C)C)C(=O)N[C@@H](CCCCC)C(=O)N2CCC[C@H]2C(=O)N[C@@H](C(C)C)C(=O)N[C@@H](CC(=O)O)C(=O)N[C@H](C(=O)N[C@@H](CC(C)C)C(N)=O)CSCC(=O)N[C@@H](Cc2ccc3ccccc3c2)C(=O)N[C@@H](Cc2ccc(O)cc2)C(=O)N[C@@H](CC(=O)O)C1=O [Ex 1309] ({CH2CO}-[2Nal]YD[NHexGly]YVGRL[Ahp(2)]PVDCL-NH2; thioether N-14)	5.2
CCCCCCN1CC(=O)N[C@@H](Cc2ccc(O)cc2)C(=O)N[C@@H](C(C)C)C(=O)NCC(=O)N[C@@H](CCCNC(=N)N)C(=O)N[C@@H](CC(C)C)C(=O)N[C@@H](CCCCC)C(=O)N2CCC[C@H]2C(=O)N[C@@H](C(C)C)C(=O)N[C@@H](CC(=O)O)C(=O)N[C@H](C(=O)N[C@@H](CC(N)=O)C(N)=O)CSCC(=O)N[C@@H](Cc2ccc3ccccc3c2)C(=O)N[C@@H](Cc2ccc(O)cc2)C(=O)N[C@@H](CC(=O)O)C1=O [Ex 1310] ({CH2CO}-[2Nal]YD[NHexGly]YVGRL[Ahp(2)]PVDCN-NH2; thioether N-14)	3.4
CCCCCCN1CC(=O)N[C@@H](Cc2ccc(O)cc2)C(=O)N[C@@H](CCCC)C(=O)N[C@@H](CC(N)=O)C(=O)N[C@@H](CCCNC(=N)N)C(=O)N[C@@H](CC(C)C)C(=O)N[C@@H](CCCCC)C(=O)N2CCC[C@H]2C(=O)N[C@@H](C(C)C)C(=O)N[C@@H](CC(=O)O)C(=O)N[C@H](C(=O)N[C@@H](CC(N)=O)C(N)=O)CSCC(=O)N[C@@H](Cc2ccc3ccccc3c2)C(=O)N[C@@H](Cc2ccc(O)cc2)C(=O)N[C@@H](CC(=O)O)C1=O [Ex 1311] ({CH2CO}-[2Nal]YD[NHexGly]Y[Nle]NRL[Ahp(2)]PVDCN-NH2; thioether N-14)	8.3
CCCCCCN1CC(=O)N[C@@H](Cc2ccc(O)cc2)C(=O)N[C@@H](C(C)C)C(=O)NCC(=O)N[C@@H](CCCNC(=N)N)C(=O)N[C@@H](CC(C)C)C(=O)N[C@@H](CCCCC)C(=O)N2CCC[C@H]2C(=O)N[C@@H](C(C)C)C(=O)N[C@@H](CC(=O)O)C(=O)N[C@H](C(=O)N[C@@H](CCCNC(=N)N)C(N)=O)CSCC(=O)N[C@@H](Cc2ccc3ccccc3c2)C(=O)N[C@@H](Cc2ccc(O)cc2)C(=O)N[C@@H](CC(=O)O)C1=O [Ex 1312] ({CH2CO}-[2Nal]YD[NHexGly]YVGRL[Ahp(2)]PVDCR-NH2; thioether N-14)	7.7

— patent US20240218022A1, “ANTI-VISTA MACROCYCLIC PEPTIDES AND COMPOSITIONS” (BRISTOL-MYERS SQUIBB COMPANY, priority 2022, published 2024)
